For data set [1], the target named is T1, SGLT2 (Homo sapiens, UniProt P31639).
T1 sequence (P31639 1-672): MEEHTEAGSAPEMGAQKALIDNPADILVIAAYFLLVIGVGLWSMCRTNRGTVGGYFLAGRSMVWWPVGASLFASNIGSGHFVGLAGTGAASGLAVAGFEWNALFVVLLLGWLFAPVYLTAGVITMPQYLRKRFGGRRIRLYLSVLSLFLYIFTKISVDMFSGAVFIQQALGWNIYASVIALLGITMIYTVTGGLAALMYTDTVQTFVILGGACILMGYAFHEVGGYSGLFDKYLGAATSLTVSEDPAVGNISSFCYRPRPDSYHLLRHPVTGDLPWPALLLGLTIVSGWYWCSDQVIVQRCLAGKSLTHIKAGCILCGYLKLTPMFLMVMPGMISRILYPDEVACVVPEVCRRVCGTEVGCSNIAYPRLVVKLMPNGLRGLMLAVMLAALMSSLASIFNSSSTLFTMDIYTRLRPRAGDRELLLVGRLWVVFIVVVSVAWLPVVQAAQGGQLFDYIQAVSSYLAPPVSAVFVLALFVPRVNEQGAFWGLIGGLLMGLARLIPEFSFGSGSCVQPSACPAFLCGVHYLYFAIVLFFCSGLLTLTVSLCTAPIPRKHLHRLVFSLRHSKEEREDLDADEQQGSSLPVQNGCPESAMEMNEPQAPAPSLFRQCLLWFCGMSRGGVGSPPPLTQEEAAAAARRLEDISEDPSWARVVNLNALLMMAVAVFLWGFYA
Particulars: cited from earlier work.

For data set [2] the following is noted: authorized minimum dosage amount; compared with canagliflozin; cited from earlier work.
In data set [3] the test system is retina of an age-related maculopathy mouse model. The experiment in a line: Hematoxylin-Eosin staining of retina, thickness of outer granular layer, in age-related maculopathy mouse model. In kind it is in vivo, BALB/c mice. Particulars: vs non-administered AMD mouse. The procedure:
FIG. 4 is a graph showing the thickness of outer granular layer (including visual cells) of the retina of an age-related maculopathy mouse model in numeral terms. […] “***” represents P<0.005 vs control mouse, “#” and “##” each represents P<0.05 vs Ipragliflozin non-administered AMD mouse, and P<0.01 vs Ipragliflozin non-administered AMD mouse, respectively.
(§1) To BALB/c mice, light irradiation (8000 lux, 10 hours) was performed, and then the mice were bred for one week. The existing SGLT2 inhibitor agent ipragliflozin was orally administered in an amount of 0.03 mg/kg/day and 0.1 mg/kg/day for four days including the day of light irradiation. The effects on body weight and blood sugar were confirmed. These models are widely used as age-related maculopathy models.

Data set [4] in a line: Preliminary test: body weight, blood sugar and urinal sugar in light-irradiated age-related maculopathy mouse model. It is filed as in vivo, BALB/c mice. Particulars: AMD mouse; for change in body weight as compared to when not administering ipragliflozin: light irradiation 8000 lux 10 hours, bred one week. On the procedure:
as §1
FIGS. 1 and 2 show the results of body weight and blood sugar levels when administering the existing SGLT2 inhibitor agent ipragliflozin at 0.03 mg/kg/day and 0.1 mg/kg/day.

The mark [5] stands for this setting: 0.03 mg/kg/day orally for four days.
[6] abbreviates: 0.1 mg/kg/day orally for four days.

We go through five compounds from patent US11382925B2, “Agent for treating retinal disease” (CARNA HEALTH SUPPORT LTD., priority 2017, dated 2022).

SMILES strings stand for the structures.

With `OC[C@H]1O[C@@H](c2ccc(Cl)c(Cc3ccc(O[C@H]4CCOC4)cc3)c2)[C@H](O)[C@@H](O)[C@@H]1O` [empagliflozin], the “IC50 level showing the inhibition activity, compared with canagliflozin” value in data set [1] was “similar”. Moreover, the “maximum blood concentration (Cmax) in the minimum dosage amount, relative to that of canagliflozin” value in data set [2] is on record as “approximately 1/10”.
For the compound `O=C(O)[C@@H]1CCCN1.OC[C@H]1O[C@@H](c2ccc(F)c(Cc3cc4ccccc4s3)c2)[C@H](O)[C@@H](O)[C@@H]1O` [ipragliflozin L-proline], the “IC50 level showing the inhibition activity, compared with canagliflozin” value in data set [1] is “similar”. The “maximum blood concentration (Cmax) in the minimum dosage amount, relative to that of canagliflozin” value in data set [2] was “similar”.
Take `OC[C@H]1O[C@@H](c2ccc(F)c(Cc3cc4ccccc4s3)c2)[C@H](O)[C@@H](O)[C@@H]1O` [ipragliflozin]: the “thinning of membrane shown in retina of AMD mouse (thickness of outer granular layer)” value in data set [3] (0.03 mg/kg/day orally) and in data set [3] (0.1 mg/kg/day orally) was “significantly ameliorated” each time. Further, the “change in urinal sugar as compared to when not administering ipragliflozin” value in data set [4] (0.03 mg/kg/day and 0.1 mg/kg/day orally for four days) is recorded as “no change was observed”. The “change in blood sugar as compared to when not administering ipragliflozin” value in data set [4] (setting [5]) and in data set [4] (setting [6]) was “no change was observed” throughout. Besides, the “change in body weight as compared to when not administering ipragliflozin” value in data set [4] (setting [5]) and in data set [4] (setting [6]) was “no change was observed” throughout.
Turning to `CCOc1ccc(Cc2cc([C@@H]3S[C@H](CO)[C@@H](O)[C@H](O)[C@H]3O)c(OC)cc2C)cc1` [luseogliflozin hydrate], the “IC50 level showing the inhibition activity, compared with canagliflozin” value in data set [1] is on record as “similar”. In addition, the “maximum blood concentration (Cmax) in the minimum dosage amount, relative to that of canagliflozin” value in data set [2] was “approximately 1/10”.
In the case of `CCc1ccc(Cc2ccc3c(c2)[C@]2(OC3)O[C@H](CO)[C@@H](O)[C@H](O)[C@H]2O)cc1` [tofogliflozin hydrates, tofogliflozin hydrate], in data set [1], the “IC50 level showing the inhibition activity, compared with canagliflozin” value is given as “similar”. In addition, the “maximum blood concentration (Cmax) in the minimum dosage amount, relative to that of canagliflozin” value in data set [2] is “approximately 1/10”.
